From patent US20260306527A1, “PRMT INHIBITOR COMPOUNDS AND THE USES THEREOF” (Purdue Research Foundation, priority 2023, published 2026)
Read-outs that look alike come from different tables or passages of the source.

Key:
Type in all cases: biochemical
[1] = target: T1, PRMT1 (Homo sapiens, UniProt Q99873); experiment: SAHH-coupled fluorescence assay, inhibition of PRMT1
T1 construct: made in house
How it was run: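 PRMT1 (0.1 μM) was run with 10 μM AdoMet, 5 μM SAHH and 10 μM ThioGlo4 in 2.5 mM HEPES pH 7.0, 25 mM NaCl, 25 μM EDTA, 50 μM TCEP and 0.01% Triton X-100. Fluorescence (ex 400/em 465 nm) was monitored for 15 min. Assays were done in duplicate.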

[2] = system: PRMT3; experiment: SAHH-coupled fluorescence assay, inhibition of PRMT3; settings: read-out: IC50[μM] | PRMT3
Experimental: A fluorescence-based SAHH-coupled assay was applied to study the inhibition activity of all synthesized compounds on PRMT 1 and 3.
(§1) The PRMT3 methylation assay was performed under the following conditions in a final well volume of 100 μL: 20 mM Tris (pH=7.5), 0.01% Triton X-100, 5 μM SAHH, 0.25 μM PRMT3, 30 μM AdoMet, and 15 μM ThioGlo4. […] Fluorescence was monitored on a BMG CLARIOstar microplate reader with excitation 380 nm and emission 505 nm. Data were processed by using GraphPad Prism software 8.0. All experiments were performed in duplicate.
(§2) Next, the inhibition activity of the library was investigated for five PRMT members from type I PRMTs.
as §1, with “8.0.” for “8.0. All experiments were performed in duplicate.”

[3] = target: T2, PRMT4 (Homo sapiens, UniProt Q86X55); experiment: radioactive assay (Reaction Biology Corp.), inhibition of PRMT4
T2 sequence (Q86X55 1-608): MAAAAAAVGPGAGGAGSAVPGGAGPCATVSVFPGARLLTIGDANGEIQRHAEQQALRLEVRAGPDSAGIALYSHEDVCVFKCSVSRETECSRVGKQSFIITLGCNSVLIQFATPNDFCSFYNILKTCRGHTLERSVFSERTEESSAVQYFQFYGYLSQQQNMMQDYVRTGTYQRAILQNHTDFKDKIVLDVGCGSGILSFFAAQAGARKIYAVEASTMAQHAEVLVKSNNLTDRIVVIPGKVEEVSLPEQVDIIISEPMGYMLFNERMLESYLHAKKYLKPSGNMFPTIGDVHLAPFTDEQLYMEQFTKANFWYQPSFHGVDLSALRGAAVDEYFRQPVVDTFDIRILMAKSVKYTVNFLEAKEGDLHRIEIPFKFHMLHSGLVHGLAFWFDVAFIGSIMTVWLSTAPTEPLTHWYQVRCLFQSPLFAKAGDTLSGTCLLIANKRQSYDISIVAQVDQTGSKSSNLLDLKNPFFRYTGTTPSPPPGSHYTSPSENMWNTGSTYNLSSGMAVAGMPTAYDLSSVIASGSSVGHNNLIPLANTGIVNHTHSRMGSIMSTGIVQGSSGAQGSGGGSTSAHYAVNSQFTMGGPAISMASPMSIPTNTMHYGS
Experimental: as §2
(§3) The PRMT 4, 6 and 8 methylation assays were performed by Reaction Biology corp.

[4] = target: PRMT6 (Homo sapiens, UniProt Q96LA8); experiment: radioactive assay (Reaction Biology Corp.), inhibition of PRMT6
Sequence of PRMT6 (Q96LA8 whole entry, species assumed): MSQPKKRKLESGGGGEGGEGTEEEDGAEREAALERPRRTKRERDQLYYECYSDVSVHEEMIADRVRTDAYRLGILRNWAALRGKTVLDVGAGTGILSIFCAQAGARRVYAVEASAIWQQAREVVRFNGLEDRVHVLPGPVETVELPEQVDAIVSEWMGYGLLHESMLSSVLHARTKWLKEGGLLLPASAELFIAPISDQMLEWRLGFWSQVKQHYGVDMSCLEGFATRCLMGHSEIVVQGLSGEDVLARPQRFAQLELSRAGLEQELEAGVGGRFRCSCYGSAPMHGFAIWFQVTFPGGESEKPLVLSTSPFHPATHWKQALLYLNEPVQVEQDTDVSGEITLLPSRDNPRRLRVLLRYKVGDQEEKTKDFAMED
Experimental: as §2, §3

[5] = target: PRMT8 (Homo sapiens, UniProt Q9NR22); experiment: radioactive assay (Reaction Biology Corp.), inhibition of PRMT8
Sequence of PRMT8 (Q9NR22 whole entry, species assumed): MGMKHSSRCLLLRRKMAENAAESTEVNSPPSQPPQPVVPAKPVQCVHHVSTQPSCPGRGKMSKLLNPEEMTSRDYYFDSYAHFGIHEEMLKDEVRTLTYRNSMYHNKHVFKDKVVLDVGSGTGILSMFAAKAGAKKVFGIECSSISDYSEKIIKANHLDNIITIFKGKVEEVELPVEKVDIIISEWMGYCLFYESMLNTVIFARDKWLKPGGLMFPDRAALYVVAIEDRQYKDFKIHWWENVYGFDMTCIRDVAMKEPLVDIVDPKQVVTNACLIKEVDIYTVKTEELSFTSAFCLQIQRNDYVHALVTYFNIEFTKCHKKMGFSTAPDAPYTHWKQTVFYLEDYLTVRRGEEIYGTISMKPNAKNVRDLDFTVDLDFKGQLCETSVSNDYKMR
Experimental: as §2, §3

[6] = target: PRMT3 (Homo sapiens, UniProt O60678); experiment: SAHH-coupled fluorescence assay, inhibition of PRMT3; set-up: PRMT3 (residues 211-531) was cloned into the pET28a-MHL expression vector; tag of the pET28a-MHL vector (not described); made in house; host or cells: Escherichia coli BL21(DE3)
Sequence of PRMT3 (Homo sapiens, UniProt O60678) (O60678 211-531): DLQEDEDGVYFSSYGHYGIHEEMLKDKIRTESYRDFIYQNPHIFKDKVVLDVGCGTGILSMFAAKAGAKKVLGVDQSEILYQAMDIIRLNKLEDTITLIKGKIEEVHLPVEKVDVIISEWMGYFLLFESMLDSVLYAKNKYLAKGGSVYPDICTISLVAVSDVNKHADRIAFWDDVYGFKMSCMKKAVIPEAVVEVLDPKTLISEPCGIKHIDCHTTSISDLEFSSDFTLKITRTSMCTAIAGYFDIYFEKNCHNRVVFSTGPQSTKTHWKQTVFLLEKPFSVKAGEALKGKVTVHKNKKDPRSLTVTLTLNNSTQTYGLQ
How it was run: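 Coupled SAHH/ThioGlo4 fluorescence read-out (ex 380 nm, em 505 nm) of PRMT3 (0.25 μM) methylation with 30 μM AdoMet and 5 μM SAHH. Buffer was 20 mM Tris pH 7.5 with 0.01% Triton X-100. Run in duplicate.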

T1 sequence (Q99873 whole entry, species assumed): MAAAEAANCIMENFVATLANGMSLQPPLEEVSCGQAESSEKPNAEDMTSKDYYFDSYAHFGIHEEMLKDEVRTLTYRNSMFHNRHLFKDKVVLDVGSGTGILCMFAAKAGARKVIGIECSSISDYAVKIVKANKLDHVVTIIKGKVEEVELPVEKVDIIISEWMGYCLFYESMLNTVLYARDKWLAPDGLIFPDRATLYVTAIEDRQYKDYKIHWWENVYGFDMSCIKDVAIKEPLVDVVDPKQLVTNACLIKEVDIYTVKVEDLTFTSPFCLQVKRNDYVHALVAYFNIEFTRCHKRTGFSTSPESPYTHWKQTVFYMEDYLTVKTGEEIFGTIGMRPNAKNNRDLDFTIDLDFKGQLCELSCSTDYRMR

N=C(NCCCSC[C@H]1O[C@@H](n2cnc3c(N)ncnc32)[C@H](O)[C@@H]1O)Nc1cccc(-c2ccc(F)nc2)c1 [Compound 6n]
inhibition at 10 µM [1]: 91%
IC50 ([1]; read-out: IC50[μM] | PRMT1): 0.35 ± 0.073 µM
IC50 [2]: 4.2 ± 0.61 µM
inhibition at 10 µM [3]: 100%
inhibition at 10 µM [4]: 99%
inhibition at 10 µM [5]: 100%
inhibition at 10 µM [6]: 61%

N=C(NCCSC[C@H]1O[C@@H](n2cnc3c(N)ncnc32)[C@H](O)[C@@H]1O)Nc1cccc(-c2ccoc2)c1 [Compound 6c]
inhibition at 10 µM [1]: 84%
IC50 ([1]; read-out: IC50[μM] | PRMT1): 1.5 ± 0.12 µM
IC50 [2]: 8.3 ± 0.34 µM
inhibition at 10 µM [3]: 100%
inhibition at 10 µM [4]: 76%
inhibition at 10 µM [5]: 82%
inhibition at 10 µM [6]: 48%

N=C(NCCCSC[C@H]1O[C@@H](n2cnc3c(N)ncnc32)[C@H](O)[C@@H]1O)Nc1cccc(-c2ccc(C(F)(F)F)cc2)c1 [Compound 6h]
inhibition at 10 µM [1]: 88%
IC50 ([1]; read-out: IC50[μM] | PRMT1): 0.25 ± 0.051 µM
IC50 [2]: 5.7 ± 0.68 µM
inhibition at 10 µM [3]: 100%
inhibition at 10 µM [4]: 97%
inhibition at 10 µM [5]: 99%
inhibition at 10 µM [6]: 57%

N=C(NCCCSC[C@H]1O[C@@H](n2cnc3c(N)ncnc32)[C@H](O)[C@@H]1O)Nc1cccc(-c2cccc(F)c2)c1 [Compound 6j]
inhibition at 10 µM [1]: 96%
IC50 ([1]; read-out: IC50[μM] | PRMT1): 0.26 ± 0.057 µM
IC50 [2]: 4.7 ± 0.83 µM
inhibition at 10 µM [3]: 100%
inhibition at 10 µM [4]: 97%
inhibition at 10 µM [5]: 99%
inhibition at 10 µM [6]: 45%

N=C(NCCSC[C@H]1O[C@@H](n2cnc3c(N)ncnc32)[C@H](O)[C@@H]1O)Nc1cccc(-c2ccc(C(F)(F)F)cc2)c1 [Compound 6b]
inhibition at 10 µM [1]: 83%
IC50 ([1]; read-out: IC50[μM] | PRMT1): 1.8 ± 0.17 µM
IC50 [2]: 12 ± 0.83 µM
inhibition at 10 µM [3]: 100%
inhibition at 10 µM [4]: 91%
inhibition at 10 µM [5]: 94%
inhibition at 10 µM [6]: 42%

Nc1ncnc2c1ncn2[C@@H]1O[C@H](CSCCNC(=O)NCCCc2ccccc2)[C@@H](O)[C@H]1O [Compound 7b, 1-(2-((((2S,3S,4R,5R)-5-(6-amino-9H-purin-9-yl)-3,4-dihydroxytetrahydrofuran-2-yl)methyl)thio)ethyl)-3-(3-phenylpropyl)urea]
inhibition at 10 µM [1]: 13%
inhibition at 10 µM [3]: 49%
inhibition at 10 µM [4]: 7%
inhibition at 10 µM [5]: -4%
inhibition at 10 µM [6]: 5%

N=C(NCCCSC[C@H]1O[C@@H](n2cnc3c(NCCCc4ccccc4)ncnc32)[C@H](O)[C@@H]1O)NC1CCCCC1 [Compound 19e]
inhibition at 10 µM [1]: 89%
IC50 ([1]; read-out: IC50 FOR PRMT1): 0.75 ± 0.046 µM
inhibition at 10 µM [3]: 44%
inhibition at 10 µM [4]: 88%
inhibition at 10 µM [5]: 79%
inhibition at 10 µM [6]: 10%

N=C(NCCCSC[C@H]1O[C@@H](n2cnc3c(NCCCc4ccccc4)ncnc32)[C@H](O)[C@@H]1O)NCCc1ccccc1 [Compound 19l]
inhibition at 10 µM [1]: 90%
IC50 ([1]; read-out: IC50 FOR PRMT1): 0.5 ± 0.075 µM
inhibition at 10 µM [3]: 26%
inhibition at 10 µM [4]: 86%
inhibition at 10 µM [5]: 87%
inhibition at 10 µM [6]: 9%

N=C(NCCCSC[C@H]1O[C@@H](n2cnc3c(N)ncnc32)[C@H](O)[C@@H]1O)Nc1cccc(-c2cccc([N+](=O)[O-])c2)c1 [Compound 6p]
inhibition at 10 µM [1]: 93%
inhibition at 10 µM [3]: 100%
inhibition at 10 µM [4]: 98%
inhibition at 10 µM [5]: 100%
inhibition at 10 µM [6]: 0%

Nc1ncnc2c1ncn2[C@@H]1O[C@H](CSCCNCc2cccc(-c3ccccc3O)c2)[C@@H](O)[C@H]1O [Compound 10j]
inhibition at 10 µM [1]: 25%
inhibition at 10 µM [3]: 99%
inhibition at 10 µM [4]: 43%
inhibition at 10 µM [5]: 56%
inhibition at 10 µM [6]: 10%
